Here are results for 6 substances from patent US10919941B2, “Functional lipid constructs” (KODE BIOTECH LIMITED, priority 2007, dated 2021).

No end group written: not given here. *: point of attachment. For = O=C*

Assay [1] relates to Miltenberger Antibody Positive Panel. As to the kind of experiment: Reactivity of modified RBCs against the Miltenberger Antibody Positive Panel. It counts as cell-based, human. Details: key to score vs panel 15 TAP2 / score vs panel 4 T7202 / score vs panel 8 T5896 / score vs panel 2 T217 / score vs panel 3 T165 / score vs panel 14 TAP1 / score vs panel 10 Mia / score vs panel 11 Mur / score vs panel 12 Gam / score vs panel 6 T6025 / score vs panel 7 T8445 / score vs panel 9 MIII / score vs panel 13 BoxH / reactivity with Panel Serum #7 (T8445) / agglutination score, Panel Serum #7 (T8445): 0 or ‘−’ no agglutination; 0 or ‘−’ no agglutination; 1+ or 3=very weak agglutination; 1+ or 3=very weak agglutination; 2+ or 5=weak agglutination; 2+ or 5=weak agglutination; 3+ or 8=moderate strong agglutination; 3+ or 8=moderate strong agglutination; 4+ or 10/12=strong agglutination; 4+ or 10/12=strong agglutination; 4+ or 10/12=strong agglutination. The settings on record: for sensitivity and specificity towards a human polyclonal antibody panel compared with sequence 1: MUT peptides, prior art sequence 1; for score vs panel 2 T217 / score vs panel 3 T165 / score vs panel 4 T7202 / score vs panel 8 T5896 / score vs panel 14 TAP1 / score vs panel 15 TAP2: Table 8, construct 50 μg/ml.

The test system of assay [2] is TAP1 serum (Taiwan Miltenberger antibody positive sample). As to the kind of experiment: Anti-MUT serum (TAP1) reactivity of modified RBCs (saline and AHG). It is filed as cell-based, human. Details: key: 0 or ‘−’ no agglutination; 0 or ‘−’ no agglutination; 1+ or 3=very weak agglutination; 1+ or 3=very weak agglutination; 2+ or 5=weak agglutination; 2+ or 5=weak agglutination; 3+ or 8=moderate strong agglutination; 3+ or 8=moderate strong agglutination; 4+ or 10/12=strong agglutination; 4+ or 10/12=strong agglutination; 4+ or 10/12=strong agglutination. The settings on record: construct 50 μg/ml (2 hours, 37° C.). How it is done: The suspensions are either: • 1. incubated for 2 hours at 37° C. before being washed and suspended in a cell medium for serological analysis at a concentration of 0.8 to 3% (Method 1); or • 2. incubated for 3 to 4 hours at room temperature (circa 25° C.) followed by 18 hours at 4° C. before being washed and suspended in a cell medium for serological analysis at a concentration of 0.8 to 3% (Method 2).
Serological reactions are graded or scored by either of two established systems (0 or ‘−’ no agglutination, 1+ or 3=very weak agglutination, 2+ or 5=weak agglutination, 3+ or 8=moderate strong agglutination, 4+ or 10/12=strong agglutination)

The subject of a further assay is antibody negative serums. As to the kind of experiment: False positive reactions of modified RBCs with antibody negative serums/plasma. It counts as cell-based, human. Also on record: key to Reaction score BioVue AHG, PAC samples 1-46, 49, 50, 52, 53 / Reaction score BioVue AHG, PAC sample 47 / Reaction score BioVue AHG, PAC sample 48 / Reaction score BioVue AHG, PAC sample 51 / agglutination score, T series serum 2 / agglutination score, T series serum 42 / agglutination score, T series serum 63 / agglutination score, T series serum 62 / agglutination score, T series serum 7 / agglutination score, T series serum 20 / agglutination score, T series serum 48 / agglutination score, T series serum 22 / agglutination score, T series serum 39 / agglutination score, T series serum 23 / agglutination score, T series serum 30 / agglutination score, T series serum 4 / agglutination score, T series serum 31 / agglutination score, T series serum 44 / agglutination score, T series serum 61 / agglutination score, T series serum 18 / agglutination score, T series serum 21 / agglutination score, T series serum 28 / agglutination score, T series serum 55 / agglutination score, false positive serum T18 / agglutination score, false positive serum T21 / agglutination score, false positive serum T28 / agglutination score, false positive serum T55 / agglutination score, false positive serum T78 / agglutination score, false positive serum T92: 0 or ‘−’ no agglutination; 0 or ‘−’ no agglutination; 1+ or 3=very weak agglutination; 1+ or 3=very weak agglutination; 2+ or 5=weak agglutination; 2+ or 5=weak agglutination; 3+ or 8=moderate strong agglutination; 3+ or 8=moderate strong agglutination; 4+ or 10/12=strong agglutination; 4+ or 10/12=strong agglutination; 4+ or 10/12=strong agglutination. To be noted: for Reaction score BioVue AHG, PAC sample 47 / Reaction score BioVue AHG, PAC sample 48 / Reaction score BioVue AHG, PAC sample 51 / Reaction score BioVue AHG, PAC samples 1-46, 49, 50, 52, 53: blood donor plasma, construct 50 μg/ml (2 hours, 37° C.); for % False Positives: panel of blood donor plasma samples (PAC), BioVue AHG, construct 50 μg/ml.

For assay [3], the system named is Miltenberger antibody positive sera. The assay can be described thus: BioVue AHG card column agglutination serology of modified red blood cells. It is filed as cell-based, human. Also on record: key: 0 or ‘−’ no agglutination; 0 or ‘−’ no agglutination; 1+ or 3=very weak agglutination; 1+ or 3=very weak agglutination; 2+ or 5=weak agglutination; 2+ or 5=weak agglutination; 3+ or 8=moderate strong agglutination; 3+ or 8=moderate strong agglutination; 4+ or 10/12=strong agglutination; 4+ or 10/12=strong agglutination; 4+ or 10/12=strong agglutination. To be noted: construct 50 μg/ml.

Assay [4] has as its system Miltenberger antibody positive samples and false positive antibody negative samples. The assay can be described thus: Reactivity of RBCs modified with capped peptide-lipid constructs in alternative configurations. It is filed as cell-based. Details: key: 0 or ‘−’ no agglutination; 0 or ‘−’ no agglutination; 1+ or 3=very weak agglutination; 1+ or 3=very weak agglutination; 2+ or 5=weak agglutination; 2+ or 5=weak agglutination; 3+ or 8=moderate strong agglutination; 3+ or 8=moderate strong agglutination; 4+ or 10/12=strong agglutination; 4+ or 10/12=strong agglutination; 4+ or 10/12=strong agglutination. The settings on record: capped construct 50 μg/mL, 2 hours at 37° C. As to the method: Peptide-lipid constructs comprising CMG(2) and the following peptides were prepared:
The termini of the peptides were formylated and amidated to provide “capped” peptides. The reactivity of random Miltenberger antibody positive samples and three false positive antibody negative samples were tested against RBCs modified to incorporate these “capped” peptide-lipid constructs (50 μg/mL, 2 hours at 37° C.).
The reactivity was assessed and recorded in Table 24. […] However, linkage of the peptide via a Cys residue located at the amino terminus (as opposed to the carboxy terminus) appeared to reduce the likelihood of reactivity with the false-positive antibody negative samples and improve reactivity with the known antibody positive samples.

Turning to “M36: DOPE peptide-lipid construct: MUTK peptide SQTNDKHKRDT, leader c, spacer CMG(2) (SQTNDKHKRDTC; also: DOPE peptide-lipid construct via leader Cys, spacer CMG(2))”, in assay [1], the “sensitivity and specificity towards a human polyclonal antibody panel compared with sequence 1” value is “superior sensitivity and specificity”; the “score vs panel 2 T217” value is recorded as 0; the “score vs panel 3 T165” value is listed as 0; the “score vs panel 4 T7202” value is 0. In assay [1], the “score vs panel 8 T5896” value is recorded as 0, the “score vs panel 14 TAP1” value worked out at 8 and the “score vs panel 15 TAP2” value turned out to be 0. Moreover, the “Reactivity with anti-MUT serum TAP1” value in assay [2] came out at 8. Further, in the assay on antibody negative serums, the “Reaction score BioVue AHG, PAC sample 47” value came out at 3; the “Reaction score BioVue AHG, PAC sample 48” value came to 5; the “Reaction score BioVue AHG, PAC sample 51” value turned out to be 0; the “Reaction score BioVue AHG, PAC samples 1-46, 49, 50, 52, 53” value (“Reaction score BioVue AHG … 53” for short) amounted to 0. In addition, in the assay on antibody negative serums, the “% False Positives” value was found to be 3.8%. For the same substance, in assay [3], the “BioVue score vs TAP1” value came out at 8, the “BioVue score vs positive sample 2 T217 (T)” value was 0, the “BioVue score vs positive sample 3 T165 (Mur)” value amounted to 0 and the “BioVue score vs positive sample 4 T7202 (M)” value is reported as 0. The “BioVue score vs positive sample 8 T5896 (M + K + Mur)” value in assay [3] is reported as 0.
Regarding “M45: capped peptide-lipid construct comprising CMG(2) and CysThrTyrProAlaHisThrAlaAsnGlu (For-CTYPAHTANE-NH2; also: capped peptide-lipid construct comprising CMG(2))”, in assay [4], the “agglutination score, antibody positive serum 55” value was determined as 8; the “agglutination score, antibody positive serum 61” value amounted to 5; the “agglutination score, antibody positive serum 65” value was 8; the “agglutination score, antibody positive serum 67” value came to 10. In assay [4], the “agglutination score, antibody positive serum 68” value was 0; the “agglutination score, antibody positive serum 71” value was found to be 10; the “agglutination score, antibody positive serum 942-433813-3” value was found to be 5; the “agglutination score, false-positive antibody negative serum PAC302” value is recorded as 0. In addition, in assay [4], the “agglutination score, false-positive antibody negative serum PAC332” value is 0 and the “agglutination score, false-positive antibody negative serum PAC340” value worked out at 0.
Regarding “M37: DOPE peptide-lipid construct: MUTK peptide TNDKHKRDTYP, leader c, spacer CMG(2) (TNDKHKRDTYPC; also: DOPE peptide-lipid construct via leader Cys, spacer CMG(2))”, in assay [1], the “sensitivity and specificity towards a human polyclonal antibody panel compared with sequence 1” value is “superior sensitivity and specificity”; the “score vs panel 2 T217” value was 5; the “score vs panel 3 T165” value is 0; the “score vs panel 4 T7202” value is reported as 8. In assay [1], the “score vs panel 8 T5896” value is recorded as 0, the “score vs panel 14 TAP1” value was determined as 8 and the “score vs panel 15 TAP2” value is 0. Also, in assay [2], the “Reactivity with anti-MUT serum TAP1” value was found to be 8. In the assay on antibody negative serums, the “Reaction score BioVue AHG, PAC sample 47” value is reported as 0; the “Reaction score BioVue AHG, PAC sample 48” value is on record as 0; the “Reaction score BioVue AHG, PAC sample 51” value is recorded as 0; the “Reaction score BioVue AHG … 53” value came out at 0. In addition, the “% False Positives” value with antibody negative serums is recorded as 0%. For the same substance, in assay [3], the “BioVue score vs TAP1” value was 8, the “BioVue score vs positive sample 2 T217 (T)” value amounted to 5, the “BioVue score vs positive sample 3 T165 (Mur)” value was found to be 0 and the “BioVue score vs positive sample 4 T7202 (M)” value was determined as 8. Besides, in assay [3], the “BioVue score vs positive sample 8 T5896 (M + K + Mur)” value was 0.
On to “M34: DOPE peptide-lipid construct: MUTK peptide SSQTNDKHKR, leader c, spacer CMG(2) (SSQTNDKHKRC; also: DOPE peptide-lipid construct via leader Cys, spacer CMG(2))”, for which, in assay [1], the “score vs panel 2 T217” value is recorded as 0, the “score vs panel 3 T165” value was 0, the “score vs panel 4 T7202” value was 0 and the “score vs panel 8 T5896” value is 0. In assay [1], the “score vs panel 14 TAP1” value came out at 3 and the “score vs panel 15 TAP2” value was 0. Moreover, the “Reactivity with anti-MUT serum TAP1” value in assay [2] is recorded as 5. Further, in the assay on antibody negative serums, the “Reaction score BioVue AHG, PAC sample 47” value is 0; the “Reaction score BioVue AHG, PAC sample 48” value is on record as 3; the “Reaction score BioVue AHG, PAC sample 51” value was 5; the “Reaction score BioVue AHG … 53” value is 0. The “% False Positives” value in the assay on antibody negative serums is listed as 3.8%. In assay [3], the “BioVue score vs TAP1” value stood at 5, the “BioVue score vs positive sample 2 T217 (T)” value came to 0, the “BioVue score vs positive sample 3 T165 (Mur)” value turned out to be 0 and the “BioVue score vs positive sample 4 T7202 (M)” value is listed as 0. The “BioVue score vs positive sample 8 T5896 (M + K + Mur)” value in assay [3] was 0.
As for “M33: DOPE peptide-lipid construct: MUTK peptide QTNDKHKRDTY, leader c, spacer CMG(2) (QTNDKHKRDTYC; also: DOPE peptide-lipid construct via leader Cys, spacer CMG(2))”, in assay [1], the “score vs panel 2 T217” value is reported as 0, the “score vs panel 3 T165” value came to 0, the “score vs panel 4 T7202” value is 0 and the “score vs panel 8 T5896” value worked out at 0. In assay [1], the “score vs panel 14 TAP1” value turned out to be 8 and the “score vs panel 15 TAP2” value is on record as 0. In assay [2], the “Reactivity with anti-MUT serum TAP1” value is given as 3. In assay [3], the “BioVue score vs TAP1” value was found to be 3, the “BioVue score vs positive sample 2 T217 (T)” value is on record as 0, the “BioVue score vs positive sample 3 T165 (Mur)” value stood at 0 and the “BioVue score vs positive sample 4 T7202 (M)” value was 0. The “BioVue score vs positive sample 8 T5896 (M + K + Mur)” value in assay [3] is recorded as 0.
For “M44: capped peptide-lipid construct comprising CMG(2) and ThrTyrProAlaHisThrAlaAsnGluCys (For-TYPAHTANEC-NH2; also: capped peptide-lipid construct comprising CMG(2))”, in assay [4], the “agglutination score, antibody positive serum 55” value is 8; the “agglutination score, antibody positive serum 61” value was found to be 8; the “agglutination score, antibody positive serum 65” value was found to be 10; the “agglutination score, antibody positive serum 67” value is listed as 8. Besides, in assay [4], the “agglutination score, antibody positive serum 68” value is on record as 0; the “agglutination score, antibody positive serum 71” value stood at 10; the “agglutination score, antibody positive serum 942-433813-3” value is 0; the “agglutination score, false-positive antibody negative serum PAC302” value came out at 5. In addition, in assay [4], the “agglutination score, false-positive antibody negative serum PAC332” value is listed as 12 and the “agglutination score, false-positive antibody negative serum PAC340” value was 5.
